Assay results as given in patent US20150152091A1, “CROP ENHANCEMENT” (Syngenta Participations AG, priority 2012, published 2015).

Tests used:
Format in all cases: in vivo
[1] = tested on: Soybean seeds cv. Toliman; experiment: Soybean seedling emergence in saturated cold test (seed treatment); conditions: for Total shoot dry mass: per tray
Method: (§1) Soybean seeds cv. Toliman were treated with a test compound of formula I formulated as FS100, at a dose of 0.05 g ai/kg, 0.005 g ai/kg, or 0.0001 g ai/kg seeds. Seeds were planted on 2 cm levelled pre-chilled moist sand and covered with a 2 cm layer of a mixture of steamed soil and sand (1:1). Enough cold water (10° C.) was added to the sand-soil mixture to adjust soil moisture to 60% water holding capacity. The seeds were incubated at 10° C. in the dark for 10 days and transferred into a chamber with alternating temperature (25° C. day/23° C. night) and light source (12 h) for 10 days. Seedling emergence in % and dry mass of above parts of seedling per tray was determined at the end of the incubation period. The test was performed using four replicates (4×50 seeds).

[2] = tested on: Soybean seeds cv. Toliman; experiment: Soybean seedling emergence in saturated warm test (seed treatment)
Method: as §1, with “seeds). Treated seeds used in the saturated cold test were evaluated in parallel in a saturated warm test. Test conditions were the same as those described for the 10 day warm incubation period of the saturated cold test. Briefly, seeds were placed onto a saturated sand layer of 2 cm and covered with saturated sand-soil mixture (60% WHC) at room temperature. The seeds were incubated 10 days at 25° C. day/23° C. night and 12 h light. Seedling emergence and shoot dry mass was determined as described in the saturated cold test method. The test was performed using four replicates each 50 seeds.” for “seeds).”

[3] = tested on: temperate cauliflower Spacestar seeds (Brassica oleracea cv Botrytis); experiment: Standard paper germination test for Brassica, suboptimal conditions; conditions: 25 μM, 10° C. in the light
Method: The effect of compounds of Formula (I) on the germination of Brassica oleracea cv Botrytis or common cauliflower was tested on two types of cauliflowers: temperate types and tropical types. These two types were chosen because they display different sensitivities to the light conditions and temperature during germination. Germination of a sensitive temperate type is inhibited by light at 10° C. while for the tropical types germination at 20° is stimulated by the presence of light. […] The temperate seed batches tested are part of commercially produced seed batches of various varieties which are known to be sensitive to light at 10° C. These seeds were harvested and cleaned according standard commercial procedures. Ready seed batches were used (Ready indicates the processing level of these seeds: they have been cleaned and sized but received no other treatments). The tropical seed batches tested are part of seed batches produced as basic seed (for maintenance of the parental line) and were processed accordingly. Germination was assessed using the standard paper germination test for Brassica: Fifty seeds were placed on blue germination paper, which was moistened with the appropriate solutions, in closed oblong germination boxes. Each condition was tested in duplo. Germination boxes were placed in controlled germination cabinets with the appropriate temperature and light conditions. Germination of seeds was counted at regular intervals. Seeds were considered to be germinated when the radical had protruded the testa and endosperm (radical size approximately 1 mm). Test compounds were dissolved in DMSO at a concentration of 50 mM and stored at −20° C. The strigolactone analogue GR24 (commercially available as a racemic mixture of 2 diastereoisomers, referred to as “synthetic strigolactone GR-24” and first prepared by Johnson A. W. & all, Journal of the Chemical Society, Perkin Transactions 1, 1981, page 1734-1743) was included as positive control. Germination solutions were prepared by diluting the stock solutions with demineralized water till 25 μM. As control solutions demineralized water and a 0.05% v/v DMSO solution were used.

[4] = 0.05 g ai/kg seeds, FS100, 10 days 10° C. dark then 10 days 25/23° C.
[5] = 0.05 g ai/kg seeds, 10 days 25/23° C.
[6] = Spacestar 11B313 (cold-sensitive), set B
[7] = Spacestar 11B314 (not cold sensitive), set B
[8] = Spacestar 11B313 (cold-sensitive), set A
[9] = Spacestar 11B314 (not cold sensitive), set A

SMILES | Seedling emergence (%) ([1]; 0.0001 g ai/kg seeds, FS100) | Total shoot dry mass ([1]; 0.0001 g ai/kg seeds) [g] | Seedling emergence (%) ([1]; 0.005 g ai/kg seeds, FS100) | Total shoot dry mass ([1]; 0.005 g ai/kg seeds) [g] | Seedling emergence (%) [1, 4] [%] | Total shoot dry mass ([1]; 0.05 g ai/kg seeds) [g] | Seedling emergence (%) ([2]; 0.0001 g ai/kg seeds) | Total shoot dry mass ([2]; 0.0001 g ai/kg seeds) [g] | Seedling emergence (%) ([2]; 0.005 g ai/kg seeds) | Total shoot dry mass ([2]; 0.005 g ai/kg seeds) [g] | Total shoot dry mass ([2]; 0.05 g ai/kg seeds) [g] | Seedling emergence (%) [2, 5] [%] | Gmax (%), total germination as percentage of sown seeds [3, 6] [%] | stimulation (%), extra germination compared to the DMSO treatment [3, 6] [%] | Gmax (%), total germination as percentage of sown seeds [3, 7] [%] | stimulation (%), extra germination compared to the DMSO treatment [3, 7] [%] | Gmax (%), total germination as percentage of sown seeds [3, 8] [%] | stimulation (%), extra germination compared to the DMSO treatment [3, 8] [%] | Gmax (%), total germination as percentage of sown seeds [3, 9] [%] | stimulation (%), extra germination compared to the DMSO treatment [3, 9] [%]
CC1=CC(OC=C2C(=O)NC3c4cccc(Br)c4CC23)OC1=O (stereo not shown) [Compound A2] | 48.5 | 3.810 | 49.5 | 3.725 | 56 | 3.993 | 89 | 5.763 | 87.5 | 6.105 | 6.325 | 91.5 |  |  |  |  |  |  |  | 
CC1=C(C)C(OC=C2C(=O)NC3c4ccccc4CC23)OC1=O (stereo not shown) [Compound A7] |  |  |  |  |  |  |  |  |  |  |  |  | 68.5 | 26.9 | 95.0 | 10.5 |  |  |  | 
CC1=CC(OC=C2C(=O)N(C(=O)OC(C)(C)C)C3c4ccccc4CC23)OC1=O (mixture of isomers) [Compound A5] | 48 | 3.420 | 51.5 | 3.815 | 55 | 4.105 | 91 | 6.260 | 91.5 | 6.095 | 6.148 | 91.5 |  |  |  |  | 74.5 | 24.2 | 92.5 | 2.2
CC1=CC(OC=C2C(=O)N(c3ccccc3)C3c4ccccc4CC23)OC1=O (stereo not shown) [Compound A3] | 67 | 4.838 | 57 | 4.540 | 51.5 | 3.850 | 91 | 6.158 | 87 | 6.235 | 5.918 | 81 |  |  |  |  | 74.5 | 24.2 | 89.5 | −1.1
CC1=CC(OC=C2C(=O)NC3c4cccc(C)c4CC23)OC1=O (mixture of isomers) [Compound A9] |  |  |  |  |  |  |  |  |  |  |  |  | 59.8 | 10.6 | 94.0 | 9.3 |  |  |  | 
CC1=CC(OC=C2C(=O)NC3c4ccccc4CC23)OC1=O (stereo not shown) [Compound A1] | 67.5 | 5.298 | 63.5 | 5.018 | 54.5 | 4.438 | 88.5 | 6.053 | 89 | 6.010 | 6.023 | 91 |  |  |  |  | 77.0 | 28.3 | 90.5 | 0.0
CC1=CC(OC=C2C(=O)NC3c4ccccc4CC23)OC1=O (stereo not shown) [Compound B1] | 58.5 | 4.440 | 67 | 5.065 | 44.5 | 3.365 | 91 | 5.778 | 94 | 6.440 | 5.935 | 89 |  |  |  |  | 60.5 | 0.8 | 93.5 | 3.3
CC1=CC(OC=C2C(=O)N(C)C3c4ccccc4CC23)OC1=O (stereo not shown) [Compound A8] |  |  |  |  |  |  |  |  |  |  |  |  | 73.0 | 35.2 | 93.5 | 8.7 |  |  |  | 
CC(=O)N1C(=O)C(=COC2C=C(C)C(=O)O2)C2Cc3ccccc3C21 (stereo not shown) [Compound A4] | 62 | 4.788 | 62.5 | 4.550 | 61.5 | 4.850 | 89 | 6.035 | 90 | 5.908 | 5.920 | 86 |  |  |  |  | 82.0 | 36.7 | 91.0 | 0.6
CC1=C[C@H](O/C=C2/C(=O)O[C@@H]3c4ccccc4C[C@H]23)OC1=O [GR24, reference compound] |  |  |  |  |  |  |  |  |  |  |  |  | 80.0 | 48.1 | 93.0 | 8.1 | 71.5 | 19.2 | 93.5 | 3.3
